Read-outs that look alike come from different tables or passages of the source.
What was measured:
DRB1*0301 = molecular target: T1, DRB1*0301 (Homo sapiens, UniProt P01903+P01911, A100K/A102G/A103R/A169T/F55Y/I96L/K41T/L162R/M171V/P40S/Q125H/Q178H/Q39Y/R42S/S66N/T106N/T262R/W38E/Y61H); experiment: biochemical; assay type: binding
T1 construct: made in house; host or cells: EBV-transformed homozygous human B cell lines, transfected fibroblasts or single-allele 721.221 transfectants

DRB1*1501 = molecular target: T2, DRB1*1501 (Homo sapiens, UniProt P01903+P01911); experiment: biochemical; assay type: binding; settings: read-out: IC50 nM to purified HLA DRB1*1501
T2 construct: made in house; host or cells: EBV-transformed homozygous human B cell lines, transfected fibroblasts or single-allele 721.221 transfectants

DRB4*0101 = molecular target: T3, DRB4*0101 (Homo sapiens, UniProt P01903+P13762, G164S); experiment: biochemical; assay type: binding; settings: IC50 nM to purified HLA DRB4*0101
T3 construct: made in house; host or cells: EBV-transformed homozygous human B cell lines, transfected fibroblasts or single-allele 721.221 transfectants

DRB1*1302 = DRB1*1302 (Homo sapiens, UniProt P01903+P01911, A100E/A169T/K41T/L162R/M171V/P40S/Q125H/Q178H/Q39Y/Q99D/R42S/S66N/T262R/V115G/W38E/Y61H); experiment: biochemical; assay type: binding; settings: read-out: IC50 nM to purified HLA DRB1*1302
DRB1*1302, sequence (P01903 26-254 limits assumed, other chains not shown): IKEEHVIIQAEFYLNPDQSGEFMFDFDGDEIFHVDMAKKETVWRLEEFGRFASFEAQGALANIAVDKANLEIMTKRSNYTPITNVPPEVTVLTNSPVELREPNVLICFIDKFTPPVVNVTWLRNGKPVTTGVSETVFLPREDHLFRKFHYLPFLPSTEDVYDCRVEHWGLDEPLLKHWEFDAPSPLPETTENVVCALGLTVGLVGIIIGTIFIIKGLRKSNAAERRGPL

DRB1*0101 = molecular target: T4, DRB1*0101 (Homo sapiens, UniProt P01903+P01911, A100R/D57E/F55L/F60I/F76Y/I96L/L162R/M171V/P40L/Q125E/R42F/V115G/Y59C); experiment: biochemical; assay type: binding; settings: IC50 nM to purified HLA DRB1*0101
T4 construct: made in house; host or cells: EBV-transformed homozygous human B cell lines, transfected fibroblasts or single-allele 721.221 transfectants

DRB1*0401 = molecular target: T5, DRB1*0401 (Homo sapiens, UniProt P01903+P01911, A100K/A169T/F76Y/I96L/K127E/L162R/M171V/N62H/P40V/Q125Y/R42H/S133A/S149N/S66Y/V115G/V209L/W38E); experiment: biochemical; assay type: binding; settings: read-out: IC50 nM to purified HLA DRB1*0401
T5 construct: made in house; host or cells: EBV-transformed homozygous human B cell lines, transfected fibroblasts or single-allele 721.221 transfectants

CD4+ PBMC = assay type: cell-based, human
DRB1*0404 = DRB1*0404 (Homo sapiens, UniProt P01903+P01911, A100R/A169T/F76Y/I96L/K127E/L162R/M171V/N62H/P40V/Q125Y/R42H/S133A/S149N/S66Y/V209L/W38E); experiment: biochemical; assay type: binding; settings: IC50 nM to purified HLA DRB1*0404
[1] = IFNγ ELISPOT, five day expansion with peptide pool, CD8-depleted

T1 sequence (P01903 26-254, other chains not shown): as the sequence (P01903 26-254 limits assumed, other chains not shown) above

Q: What does the source list for CC[C@H](C)[C@H](NC(=O)[C@H](CS)NC(=O)[C@@H](NC(=O)[C@H](CCC(N)=O)NC(=O)[C@H](CC(=O)O)NC(=O)[C@H](CO)NC(=O)[C@H](CCCCN)NC(=O)[C@@H](NC(=O)[C@H](CC(C)C)NC(=O)[C@H](CO)NC(=O)[C@@H](N)C(C)C)C(C)C)[C@@H](C)CC)C(=O)NCC(=O)N[C@@H](Cc1ccc(O)cc1)C(=O)N[C@@H](Cc1c[nH]cn1)C(=O)N[C@@H](C)C(=O)O [Flu.HA.11]?
A: IC50 (DRB1*0301): 511 nM; IC50 (DRB1*1501): 14500 nM; IC50 (DRB4*0101): 32 nM

Q: Which results are given for CC(C)C[C@H](NC(=O)CNC(=O)[C@@H](NC(=O)[C@H](C)NC(=O)[C@H](CC(C)C)NC(=O)[C@@H](NC(=O)[C@H](CC(C)C)NC(=O)[C@H](CCCNC(=N)N)NC(=O)[C@H](CC(N)=O)NC(=O)[C@H](CO)NC(=O)[C@H](CCCCN)NC(=O)[C@@H](NC(=O)[C@H](Cc1ccc(O)cc1)NC(=O)[C@H](CCCCN)NC(=O)[C@@H]1CCCN1C(=O)[C@@H](N)CS)C(C)C)C(C)C)[C@@H](C)O)C(=O)O [Flu.HA.318]?
A: IC50 (DRB1*1302): 48 nM; IC50 (DRB1*0101): 2760 nM; IC50 (DRB1*0301): 2920 nM; IC50 (DRB1*1501): 230 nM; IC50 (DRB4*0101): 287 nM; IC50 (DRB1*0401): 868 nM

Q: How did the “Human influenza epitope-specific immune response, donor 753” value (CD4+ PBMC) turn out when CC[C@H](C)[C@H](NC(=O)CNC(=O)[C@@H](N)CCCCN)C(=O)N[C@@H](CC(C)C)C(=O)NCC(=O)N[C@@H](Cc1ccccc1)C(=O)N[C@H](C(=O)N[C@@H](Cc1ccccc1)C(=O)N[C@H](C(=O)N[C@@H](CC(C)C)C(=O)N[C@H](C(=O)N[C@H](C(=O)N1CCC[C@H]1C(=O)N[C@@H](CO)C(=O)N[C@@H](CCC(=O)O)C(=O)O)C(C)C)[C@@H](C)O)[C@@H](C)O)C(C)C [Flu.M1.60] was run?
A: Positive (key: Positive: Donors were considered positive for a peptide if the number of spots was over 3 times background as determined by responses to irrelevant peptides (non influenza))

Q: And the “Human influenza epitope-specific immune response, donor 6018” value (CD4+ PBMC)?
A: Positive (key: Positive: Donors were considered positive for a peptide if the number of spots was over 3 times background as determined by responses to irrelevant peptides (non influenza))

Q: And the “Human influenza epitope-specific immune response, donor AC02” value (CD4+ PBMC)?
A: Positive (key: Positive: Donors were considered positive for a peptide if the number of spots was over 3 times background as determined by responses to irrelevant peptides (non influenza))

Q: What about the “Human influenza epitope-specific immune response, donor AC08” value (CD4+ PBMC) of the same molecule?
A: Positive (key: Positive: Donors were considered positive for a peptide if the number of spots was over 3 times background as determined by responses to irrelevant peptides (non influenza))

Q: What does the source list for CC[C@H](C)[C@H](NC(=O)[C@H](CCC(=O)O)NC(=O)[C@H](CCCNC(=N)N)NC(=O)[C@H](CCCCN)NC(=O)[C@H](CC(C)C)NC(=O)[C@H](CCCCN)NC(=O)[C@H](CCCNC(=N)N)NC(=O)[C@@H](N)Cc1ccc(O)cc1)C(=O)N[C@H](C(=O)N[C@@H](Cc1ccccc1)C(=O)N[C@@H](Cc1c[nH]cn1)C(=O)NCC(=O)N[C@@H](C)C(=O)N[C@@H](CCCCN)C(=O)N[C@@H](CCC(=O)O)C(=O)O)[C@@H](C)O [Flu.M1.103]?
A: Human influenza epitope-specific immune response, donor 716 (CD4+ PBMC; [1]): Positive (Donors were considered positive for a peptide if the number of spots was over 3 times background as determined by responses to irrelevant peptides (non influenza)); Human influenza epitope-specific immune response, donor AC08 (CD4+ PBMC; [1]): Positive (Donors were considered positive for a peptide if the number of spots was over 3 times background as determined by responses to irrelevant peptides (non influenza))

Q: For CC[C@H](C)[C@H](NC(=O)[C@H](CC(C)C)NC(=O)[C@@H]1CCCN1C(=O)[C@@H](N)CC(N)=O)C(=O)N[C@@H](CCCNC(=N)N)C(=O)N[C@@H](Cc1c[nH]cn1)C(=O)N[C@@H](CCC(=O)O)C(=O)N[C@@H](CC(N)=O)C(=O)N[C@@H](CCCNC(=N)N)C(=O)N[C@@H](CCSC)C(=O)N[C@H](C(=O)N[C@@H](CC(C)C)C(=O)N[C@@H](C)C(=O)N[C@@H](CO)C(=O)N[C@H](C(=O)O)[C@@H](C)O)C(C)C [Flu.M1.173], which “Human influenza epitope-specific immune response, donor AC02” value (CD4+ PBMC; [1]) is on record?
A: Positive (Donors were considered positive for a peptide if the number of spots was over 3 times background as determined by responses to irrelevant peptides (non influenza))

Q: How did the “Human influenza epitope-specific immune response, donor 6018” value (CD4+ PBMC; [1]) turn out when CSCC[C@H](NC(=O)[C@H](C)NC(=O)[C@H](CCC(N)=O)NC(=O)[C@@H](NC(=O)[C@H](CCSC)NC(=O)[C@H](CCC(N)=O)NC(=O)[C@H](CCCNC(=N)N)NC(=O)[C@H](C)NC(=O)[C@H](CCC(N)=O)NC(=O)[C@H](CO)NC(=O)[C@H](C)NC(=O)[C@@H](NC(=O)[C@H](CCC(=O)O)NC(=O)[C@H](CCSC)NC(=O)[C@H](C)N)C(C)C)C(C)C)C(=O)O [Flu.M1.205] was run?
A: Positive (Donors were considered positive for a peptide if the number of spots was over 3 times background as determined by responses to irrelevant peptides (non influenza))

Q: And the “Human influenza epitope-specific immune response, donor AC02” value (CD4+ PBMC; [1])?
A: Positive (Donors were considered positive for a peptide if the number of spots was over 3 times background as determined by responses to irrelevant peptides (non influenza))

Q: With CSCC[C@H](NC(=O)[C@H](Cc1c[nH]c2ccccc12)NC(=O)[C@@H](NC(=O)[C@H](CC(C)C)NC(=O)[C@H](CCC(N)=O)NC(=O)[C@H](CO)NC(=O)[C@@H](N)CCCCN)C(C)C)C(=O)N[C@@H](C)C(=O)N[C@@H](CS)C(=O)N[C@@H](Cc1c[nH]cn1)C(=O)N[C@@H](CO)C(=O)N[C@@H](C)C(=O)N[C@@H](C)C(=O)N[C@@H](Cc1ccccc1)C(=O)N[C@@H](CCC(=O)O)C(=O)O [Flu.NF.328] as the molecule, how does the “Human influenza epitope-specific immune response, donor 753” value (CD4+ PBMC; [1]) read?
A: Positive (Donors were considered positive for a peptide if the number of spots was over 3 times background as determined by responses to irrelevant peptides (non influenza))

Q: For CC[C@H](C)[C@H](NC(=O)[C@H](CC(C)C)NC(=O)[C@H](CCC(=O)O)NC(=O)[C@H](CCSC)NC(=O)[C@@H](NC(=O)[C@H](CCSC)NC(=O)[C@@H](NC(=O)CNC(=O)[C@@H](N)C(C)C)[C@@H](C)O)C(C)C)C(=O)N[C@@H](CCCNC(=N)N)C(=O)N[C@@H](CCSC)C(=O)N[C@H](C(=O)N[C@@H](CCCCN)C(=O)N[C@@H](CCCNC(=N)N)C(=O)NCC(=O)O)[C@@H](C)CC [Flu.NP.189], which “Human influenza epitope-specific immune response, donor 753” value (CD4+ PBMC; [1]) is on record?
A: Positive (Donors were considered positive for a peptide if the number of spots was over 3 times background as determined by responses to irrelevant peptides (non influenza))

Q: And the “Human influenza epitope-specific immune response, donor 6018” value (CD4+ PBMC; [1])?
A: Positive (Donors were considered positive for a peptide if the number of spots was over 3 times background as determined by responses to irrelevant peptides (non influenza))

Q: What about the “Human influenza epitope-specific immune response, donor AC08” value (CD4+ PBMC; [1]) of the same molecule?
A: Positive (Donors were considered positive for a peptide if the number of spots was over 3 times background as determined by responses to irrelevant peptides (non influenza))

Q: CSCC[C@H](NC(=O)[C@H](CCCNC(=N)N)NC(=O)[C@H](CCSC)NC(=O)[C@@H](N)C(C)C)C(=O)NCC(=O)N[C@@H](CC(=O)O)C(=O)N[C@@H](CC(C)C)C(=O)N[C@@H](Cc1c[nH]cn1)C(=O)N[C@@H](CO)C(=O)N[C@@H](CC(C)C)C(=O)N[C@@H](CCC(N)=O)C(=O)N[C@@H](CC(N)=O)C(=O)N[C@@H](CCCNC(=N)N)C(=O)N[C@@H](CC(N)=O)C(=O)NCC(=O)O [Flu.NS2.125] was tested. Which IC50 (DRB1*1302) did it give?
A: 1370 nM

Q: And the IC50 (DRB1*0101)?
A: 249 nM

Q: What about the IC50 (DRB1*1501) of the same molecule?
A: 372 nM

Q: What about the IC50 (DRB4*0101) of the same molecule?
A: 8820 nM

Q: And the IC50 (DRB1*0401)?
A: 448 nM

Q: How did the IC50 (DRB1*0404) turn out when CC[C@H](C)[C@H](NC(=O)CNC(=O)[C@H](CO)NC(=O)[C@@H](NC(=O)CNC(=O)[C@H](Cc1ccccc1)NC(=O)[C@H](CO)NC(=O)[C@@H]1CCCN1C(=O)[C@@H](N)CC(C)C)C(C)C)C(=O)N[C@@H](CC(N)=O)C(=O)N[C@@H](CCC(=O)O)C(=O)N[C@@H](CO)C(=O)N[C@@H](C)C(=O)N[C@@H](CC(=O)O)C(=O)N[C@@H](CCSC)C(=O)O [Flu.PB1.512] was run?
A: 39 nM

Q: And the IC50 (DRB4*0101)?
A: 48 nM

Q: What about the IC50 (DRB1*0401) of the same molecule?
A: 44 nM
